Data taken from patent publication US8188059B2, “Compounds and methods for modulating expression of GCGR” (Isis Pharmaceuticals, Inc., priority 2006, dated 2012).
Strand notation (5' to 3'): a small letter for the sugar, then the base; units joined by * are phosphorothioate-linked, units joined directly phosphodiester-linked; [ ] holds rarer units or linkages, { } end groups; capitals alone tell only the bases. e = 2'-O-(2-methoxyethyl) (MOE); [5mC] = 5-methylcytosine; d = 2'-deoxy (DNA)

System: PCSK9 mRNA
Assay type: cell-based, human
Conditions: Hep3B cells, 100 nM, relative to untreated control cells; for % Inhib (PCSK9 mRNA): 0 = no reduction observed
Protocol: When cells reached appropriate confluency, they were treated with oligonucleotide using LIPOFECTIN® as described. […] Cells were treated and data were obtained in duplicate or triplicate. […] Cells were harvested 16-24 hours after oligonucleotide treatment.
Short antisense compounds targeted to a PCSK9 nucleic acid were tested for their effects on PCSK9 mRNA in vitro. The Isis No, gapmer motif and SEQ ID NO of each short antisense compound are shown again in Table 75. Cultured Hep3B cells were treated with 100 nM of short antisense compound. 5-10-5 MOE gapmers targeted to a PCSK9 nucleic acid were used as positive controls. After the treatment period, RNA was isolated from the cells and PCSK9 mRNA levels were measured by quantitative real-time PCR, as described herein. PCSK9 mRNA levels were adjusted according to total RNA content as measured by RIBOGREEN®. Results are presented in Table 75 as percent inhibition of PCSK9 (% Inhib), relative to untreated control cells.

400297 (antisense eA*eT*dG*dG*dG*dG*d[5mC]*dA*dA*d[5mC]*dT*dT*e[5mC]*eA) [compound 400297]
% Inhib (PCSK9 mRNA): 0%

400298 (antisense e[5mC]*eA*dT*dG*dG*dG*dG*d[5mC]*dA*dA*d[5mC]*dT*eT*e[5mC]) [compound 400298]
% Inhib (PCSK9 mRNA): 0%

400299 (antisense eA*e[5mC]*dA*dT*dG*dG*dG*dG*d[5mC]*dA*dA*d[5mC]*eT*eT) [compound 400299]
% Inhib (PCSK9 mRNA): 0%

400300 (antisense eG*eG*dG*dA*dT*dG*d[5mC]*dT*d[5mC]*dT*dG*dG*eG*e[5mC]) [compound 400300]
% Inhib (PCSK9 mRNA): 9%

400301 (antisense e[5mC]*eG*d[5mC]*dT*d[5mC]*d[5mC]*dA*dG*dG*dT*dT*d[5mC]*e[5mC]*eA) [compound 400301]
% Inhibition Range (PCSK9 mRNA): 20-30%
% Inhib (PCSK9 mRNA): 27%

400302 (antisense eG*eA*dT*dA*d[5mC]*dA*d[5mC]*d[5mC]*dT*d[5mC]*d[5mC]*dA*e[5mC]*e[5mC]) [compound 400302]
% Inhib (PCSK9 mRNA): 0%

400303 (antisense eA*eG*dA*dT*dA*d[5mC]*dA*d[5mC]*d[5mC]*dT*d[5mC]*d[5mC]*eA*e[5mC]) [compound 400303]
% Inhib (PCSK9 mRNA): 0%

400304 (antisense eG*eA*dG*dA*dT*dA*d[5mC]*dA*d[5mC]*d[5mC]*dT*d[5mC]*e[5mC]*eA) [compound 400304]
% Inhibition Range (PCSK9 mRNA): 10-20%
% Inhib (PCSK9 mRNA): 11%

400305 (antisense eG*e[5mC]*d[5mC]*dT*dG*dT*d[5mC]*dT*dG*dT*dG*dG*eA*eA) [compound 400305]
% Inhibition Range (PCSK9 mRNA): 30-40%
% Inhib (PCSK9 mRNA): 38%

400306 (antisense e[5mC]*eT*dG*dT*d[5mC]*dA*d[5mC]*dA*d[5mC]*dT*dT*dG*e[5mC]*eT) [compound 400306]
% Inhibition Range (PCSK9 mRNA): 40-50%
% Inhib (PCSK9 mRNA): 40%

400310 (eT*e[5mC]*d[5mC]*d[5mC]*dG*dG*d[5mC]*d[5mC]*dG*d[5mC]*dT*dG*eA*e[5mC]; antisense) [compound 400310]
% Inhib (PCSK9 mRNA): 8%

400311 (eA*eT*d[5mC]*d[5mC]*d[5mC]*dG*dG*d[5mC]*d[5mC]*dG*d[5mC]*dT*eG*eA; antisense) [compound 400311]
% Inhibition Range (PCSK9 mRNA): 10-20%
% Inhib (PCSK9 mRNA): 18%

400312 (e[5mC]*eA*dT*d[5mC]*d[5mC]*d[5mC]*dG*dG*d[5mC]*d[5mC]*dG*d[5mC]*eT*eG; antisense) [compound 400312]
% Inhibition Range (PCSK9 mRNA): 20-30%
% Inhib (PCSK9 mRNA): 28%

400313 (eG*e[5mC]*dA*dT*d[5mC]*d[5mC]*d[5mC]*dG*dG*d[5mC]*d[5mC]*dG*e[5mC]*eT; antisense) [compound 400313]
% Inhibition Range (PCSK9 mRNA): 10-20%
% Inhib (PCSK9 mRNA): 10%

400314 (eG*eT*dG*d[5mC]*d[5mC]*d[5mC]*dT*dT*d[5mC]*d[5mC]*d[5mC]*dT*eT*eG; antisense) [compound 400314]
% Inhibition Range (PCSK9 mRNA): 20-30%
% Inhib (PCSK9 mRNA): 26%

400315 (eA*eT*dG*dA*dG*dG*dG*dT*dG*d[5mC]*d[5mC]*dG*e[5mC]*eT; antisense) [compound 400315]
% Inhib (PCSK9 mRNA): 0%

400316 (eT*eA*dT*dG*dA*dG*dG*dG*dT*dG*d[5mC]*d[5mC]*eG*e[5mC]; antisense) [compound 400316]
% Inhib (PCSK9 mRNA): 8%

400317 (e[5mC]*eT*dA*dT*dG*dA*dG*dG*dG*dT*dG*d[5mC]*e[5mC]*eG; antisense) [compound 400317]
% Inhib (PCSK9 mRNA): 7%

400318 (e[5mC]*e[5mC]*dT*dA*dT*dG*dA*dG*dG*dG*dT*dG*e[5mC]*e[5mC]; antisense) [compound 400318]
% Inhibition Range (PCSK9 mRNA): 20-30%
% Inhib (PCSK9 mRNA): 26%

400319 (e[5mC]*eG*dA*dA*dT*dA*dA*dA*d[5mC]*dT*d[5mC]*d[5mC]*eA*eG; antisense) [compound 400319]
% Inhib (PCSK9 mRNA): 0%

400320 (e[5mC]*e[5mC]*dG*dA*dA*dT*dA*dA*dA*d[5mC]*dT*d[5mC]*e[5mC]*eA; antisense) [compound 400320]
% Inhib (PCSK9 mRNA): 0%

400321 (eT*e[5mC]*d[5mC]*dG*dA*dA*dT*dA*dA*dA*d[5mC]*dT*e[5mC]*e[5mC]; antisense) [compound 400321]
% Inhib (PCSK9 mRNA): 0%

400322 (eT*eT*d[5mC]*d[5mC]*dG*dA*dA*dT*dA*dA*dA*d[5mC]*eT*e[5mC]; antisense) [compound 400322]
% Inhib (PCSK9 mRNA): 0%

400323 (eG*e[5mC]*d[5mC]*dA*dG*dG*dG*dG*d[5mC]*dA*dG*d[5mC]*eA*eG; antisense) [compound 400323]
% Inhib (PCSK9 mRNA): 0%

400324 (eG*eA*dG*dT*dA*dG*dA*dG*dG*d[5mC]*dA*dG*eG*e[5mC]; antisense) [compound 400324]
% Inhib (PCSK9 mRNA): 7%

400325 (e[5mC]*e[5mC]*d[5mC]*d[5mC]*dA*dA*dA*dG*dT*d[5mC]*d[5mC]*d[5mC]*e[5mC]*eA; antisense) [compound 400325]
% Inhib (PCSK9 mRNA): 4%

400326 (eT*e[5mC]*d[5mC]*d[5mC]*d[5mC]*dA*dA*dA*dG*dT*d[5mC]*d[5mC]*e[5mC]*e[5mC]; antisense) [compound 400326]
% Inhib (PCSK9 mRNA): 0%

400328 (eA*e[5mC]*dG*dT*dG*dG*dG*d[5mC]*dA*dG*d[5mC]*dA*eG*e[5mC]; antisense) [compound 400328]
% Inhibition Range (PCSK9 mRNA): 10-20%
% Inhib (PCSK9 mRNA): 13%

400329 (e[5mC]*eA*d[5mC]*dG*dT*dG*dG*dG*d[5mC]*dA*dG*d[5mC]*eA*eG; antisense) [compound 400329]
% Inhibition Range (PCSK9 mRNA): 10-20%
% Inhib (PCSK9 mRNA): 14%

400332 (e[5mC]*eA*dG*dG*dG*dA*dA*d[5mC]*d[5mC]*dA*dG*dG*e[5mC]*e[5mC]; antisense) [compound 400332]
% Inhib (PCSK9 mRNA): 0%

400333 (eT*e[5mC]*dA*dG*dG*dG*dA*dA*d[5mC]*d[5mC]*dA*dG*eG*e[5mC]; antisense) [compound 400333]
% Inhib (PCSK9 mRNA): 0%

400334 (e[5mC]*eT*d[5mC]*dA*dG*dG*dG*dA*dA*d[5mC]*d[5mC]*dA*eG*eG; antisense) [compound 400334]
% Inhib (PCSK9 mRNA): 0%

400335 (e[5mC]*e[5mC]*dT*d[5mC]*dA*dG*dG*dG*dA*dA*d[5mC]*d[5mC]*eA*eG; antisense) [compound 400335]
% Inhib (PCSK9 mRNA): 0%

400336 (eT*e[5mC]*d[5mC]*dT*d[5mC]*dA*dG*dG*dG*dA*dA*d[5mC]*e[5mC]*eA; antisense) [compound 400336]
% Inhib (PCSK9 mRNA): 4%

400337 (eG*eT*d[5mC]*d[5mC]*dT*d[5mC]*dA*dG*dG*dG*dA*dA*e[5mC]*e[5mC]; antisense) [compound 400337]
% Inhib (PCSK9 mRNA): 0%

400338 (eG*eG*dT*d[5mC]*d[5mC]*dT*d[5mC]*dA*dG*dG*dG*dA*eA*e[5mC]; antisense) [compound 400338]
% Inhib (PCSK9 mRNA): 9%

400339 (eT*eG*dG*dT*d[5mC]*d[5mC]*dT*d[5mC]*dA*dG*dG*dG*eA*eA; antisense) [compound 400339]
% Inhib (PCSK9 mRNA): 0%

400340 (e[5mC]*eT*dG*dG*dT*d[5mC]*d[5mC]*dT*d[5mC]*dA*dG*dG*eG*eA; antisense) [compound 400340]
% Inhib (PCSK9 mRNA): 0%

400341 (eG*e[5mC]*dT*dG*dG*dT*d[5mC]*d[5mC]*dT*d[5mC]*dA*dG*eG*eG; antisense) [compound 400341]
% Inhib (PCSK9 mRNA): 0%

400342 (eG*eT*dG*d[5mC]*dT*dG*dG*dG*dG*dG*dG*d[5mC]*eA*eG; antisense) [compound 400342]
% Inhib (PCSK9 mRNA): 0%

400343 (eG*eG*dT*dG*d[5mC]*dT*dG*dG*dG*dG*dG*dG*e[5mC]*eA; antisense) [compound 400343]
% Inhib (PCSK9 mRNA): 0%

400344 (eG*eG*dG*dT*dG*d[5mC]*dT*dG*dG*dG*dG*dG*eG*e[5mC]; antisense) [compound 400344]
% Inhib (PCSK9 mRNA): 0%

400345 (eT*eG*dG*dG*dT*dG*d[5mC]*dT*dG*dG*dG*dG*eG*eG; antisense) [compound 400345]
% Inhib (PCSK9 mRNA): 0%

400346 (eG*eA*dG*d[5mC]*dA*dG*d[5mC]*dT*d[5mC]*dA*dG*d[5mC]*eA*eG; antisense) [compound 400346]
% Inhib (PCSK9 mRNA): 5%

400347 (antisense eG*eG*dA*dG*d[5mC]*dA*dG*d[5mC]*dT*d[5mC]*dA*dG*e[5mC]*eA) [compound 400347]
% Inhib (PCSK9 mRNA): 0%

400348 (antisense eT*eG*dG*dA*dG*d[5mC]*dA*dG*d[5mC]*dT*d[5mC]*dA*eG*e[5mC]) [compound 400348]
% Inhib (PCSK9 mRNA): 0%
